Counter-ions that a name gives are not always drawn.
Key:
[1] = molecular target: T1, BRD4 BD1 (Homo sapiens, UniProt O60885, Y390A); assay: TR-FRET binding assay, BRD4 BD1 (mutant protein); conditions: BRD4 (1-477) mutant, 10 nM protein, read-out: pIC50 in the BRD4 BD1 assay (converted)
T1 construct: BRD4 (1-477) (Y97A) and (Y390A); made in house; host or cells: E. coli (pET15b vector)
Method: Time Resolved Fluorescence Resonance Energy Transfer (TR-FRET) Assay
(§1) Binding was assessed using a time resolved fluorescent resonance energy transfer binding assay. This utilises a 6 His purification tag at the N-terminal of the proteins as an epitope for an anti-6 His antibody labeled with Europium chelate (PerkinElmer AD0111) allowing binding of the Europium to the proteins which acts as the donor fluorophore. A small molecule, high affinity binder of the bromodomains BRD2, BRD3, BRD4 and BRDT has been labeled with Alexa Fluor647 (Reference Compound X) and this acts as the acceptor in the FRET pair.
Assay Principle: In the absence of a competing compound, excitation of the Europium causes the donor to emit at λ618 nm which excites the Alexa labelled bromodomain binding compound leading to an increased energy transfer that is measurable at λ647 […]. In the presence of a sufficient concentration of a compound that can bind these proteins, the interaction is disrupted leading to a quantifiable drop in fluorescent resonance energy transfer.
(§2) The binding of the compounds of formula (I) to Bromodomains BRD2, BRD3, BRD4 and BRDT was assessed using mutated proteins to detect differential binding to either Binding Domain 1 (BD1) or Binding Domain 2 (BD2) on the bromodomain. These single residue mutations in the acetyl lysine binding pocket greatly lower the affinity of the fluoroligand (Reference Compound X) for the mutated domain (>1000 fold selective for the non-mutated domain). Therefore in the final assay conditions, binding of the fluoroligand to the mutated domain cannot be detected and subsequently the assay is suitable to determine the binding of compounds to the single non-mutated bromodomain.
Protein production: Recombinant Human Bromodomains [(BRD2 (1-473) (Y113A) and (Y386A), BRD3 (1-435) (Y73A) and (Y348A) BRD4 (1-477) (Y97A) and (Y390A) and BRDT (1-397) (Y66A) and (Y309A)] were expressed in E. coli cells (in pET15b vector for BRD2/3/4 and in pET28a vector for BRDT) with a 6-His tag at the N-terminal. The His-tagged Bromodomain pellet was resuspended in 50 mM HEPES (pH7.5), 300 mM NaCl, 10 mM imidazole & 1 μl/mL protease inhibitor cocktail and extracted from the E. coli cells using sonication and purified using a nickel sepharose high performance column, the proteins were washed and then eluted with a linear gradient of 0-500 mM imidazole with buffer 50 mM HEPES (pH7.5), 150 mM NaCl, 500 mM imidazole, over 20 column volumes. Final purification was completed by Superdex 200 prep grade size exclusion column. Purified protein was stored at −80° C. in 20 mM HEPES pH 7.5 and 100 mM NaCl. Protein identity was confirmed by peptide mass fingerprinting and predicted molecular weight confirmed by mass spectrometry.
Protocol for Bromodomain BRD2, 3, 4 and T, BD1^+BD2 mutant assays: All assay components were dissolved in buffer composition of 50 mM HEPES pH7.4, 50 mM NaCl, 5% Glycerol, 1 mM DTT and 1 mM CHAPS. The final concentration of bromodomain proteins were 10 nM and the Alexa Fluor647 ligand was at Kd. These components were premixed and 5 μl of this reaction mixture was added to all wells containing 50 nl of various concentrations of test compound or DMSO vehicle (0.5% DMSO final) in Greiner 384 well black low volume microtitre plates and incubated in dark for 30 minutes at room temperature. 5 μl of detection mixture containing 1.5 nM final concentration anti-6His Europium chelate was added to all wells and a further dark incubation of at least 30 minutes was performed. Plates were then read on the Envision platereader, (λex=317 nm, donor λem=615 nm; acceptor λem=665 nm; Dichroic LANCE dual). Time resolved fluorescent intensity measurements were made at both emission wavelengths and the ratio of acceptor/donor was calculated and used for data analysis. All data was normalized to the mean of 16 high (inhibitor control—Example 11 of WO 2011/054846A1) and 16 low (DMSO) control wells on each plate. […]

[2] = tested on: Bromodomains BRD2, BRD3, BRD4 and BRDT (BD1/BD2 single residue mutants); assay: Binding of the fluoroligand to mutated versus non-mutated bromodomain; parameters: species or system Human; conditions: single residue mutations in the acetyl lysine binding pocket
Method: as §1
as §2, with “non-mutated bromodomain. […]” for “non-mutated bromodomain.”

Row | IC50 [1] | SMILES | selectivity of the fluoroligand for the non-mutated domain over the mutated domain [2]
1 | ≤ 0.1 µM | Cl.[2H]C([2H])([2H])n1cc(-c2ccnc(NC(C)=O)c2)c2oc(CN3CCN(S(C)(=O)=O)C[C@H]3C)cc2c1=O [Example 62, (R)-N-(4-(5-(^2H3)methyl-2-((2-methyl-4-(methylsulfonyl)piperazin-1-yl)methyl)-4-oxo-4,5-dihydrofuro[3,2-c]pyridin-7-yl)pyridin-2-yl)acetamide] | 
2 | ≤ 0.1 µM | C[C@@H]1CN(S(C)(=O)=O)CCN1Cc1cc2c(=O)n(C)cc(-c3cccc(NC(=O)CCCCN)c3)c2o1 [Example 64, (R)-5-amino-N-(3-(5-methyl-2-((2-methyl-4-(methylsulfonyl)piperazin-1-yl)methyl)-4-oxo-4,5-dihydrofuro[3,2-c]pyridin-7-yl)phenyl)pentanamide hydrochloride] | 
3 | ≤ 0.1 µM | CC(=O)Nc1cc(-c2cn(C)c(=O)c3cc(C(C)(C)N4CCN(S(C)(=O)=O)CC4)oc23)ccn1 [Example 65, N-(4-(5-methyl-2-(2-(4-(methylsulfonyl)piperazin-1-yl)propan-2-yl)-4-oxo-4,5-dihydrofuro[3,2-c]pyridin-7-yl)pyridin-2-yl)acetamide] | 
4 | ≤ 0.1 µM | COCCOc1cnccc1-c1cn(C)c(=O)c2cc(CN3CCN(S(C)(=O)=O)C[C@H]3C)oc12 [Example 66, (R)-7-(3-(2-methoxyethoxy)pyridin-4-yl)-5-methyl-2-((2-methyl-4-(methylsulfonyl)piperazin-1-yl)methyl)furo[3,2-c]pyridin-4(5H)-one] | 
5 | ≤ 0.01 µM | Cn1cc(-c2ccc(C(=O)O)cc2OCC2CC2)c2oc(CN3CCN(S(C)(=O)=O)CC3)cc2c1=O [Example 67, 3-(cyclopropylmethoxy)-4-(5-methyl-2-((4-(methylsulfonyl)piperazin-1-yl)methyl)-4-oxo-4,5-dihydrofuro[3,2-c]pyridin-7-yl)benzoic acid] | 
6 | ≤ 0.1 µM | CCNC(=O)c1ccc(-c2cn(C)c(=O)c3cc(CN4CCN(S(C)(=O)=O)CC4)oc23)c(OCC2CC2)c1 [Example 68, 3-(cyclopropylmethoxy)-N-ethyl-4-(5-methyl-2-((4-(methylsulfonyl)piperazin-1-yl)methyl)-4-oxo-4,5-dihydrofuro[3,2-c]pyridin-7-yl)benzamide] | 
7 | ≤ 0.1 µM | C[C@@H]1CN(S(C)(=O)=O)CCN1Cc1cc2c(=O)n(C)cc(-c3ccncc3OCC3CCOC3)c2o1 (stereo partly drawn) [Example 69, 5-methyl-2-(((R)-2-methyl-4-(methylsulfonyl)piperazin-1-yl)methyl)-7-(3-((tetrahydrofuran-3-yl)methoxy)pyridin-4-yl)furo[3,2-c]pyridin-4(5H)-one] | 
8 | ≤ 0.1 µM | C[C@@H]1CN(S(C)(=O)=O)CCN1Cc1cc2c(=O)n(C)cc(-c3ccncc3OCC3CCCO3)c2o1 (stereo partly drawn) [Example 70, 5-methyl-2-(((R)-2-methyl-4-(methylsulfonyl)piperazin-1-yl)methyl)-7-(3-((tetrahydrofuran-2-yl)methoxy)pyridin-4-yl)furo[3,2-c]pyridin-4(5H)-one] | 
9 | ≤ 0.1 µM | Cn1cc(-c2ccncc2OCC2CC2)c2oc(CN3CCNC(=O)C3)cc2c1=O [Example 71, 7-(3-(cyclopropylmethoxy)pyridin-4-yl)-5-methyl-2-((3-oxopiperazin-1-yl)methyl)furo[3,2-c]pyridin-4(5H)-one hydrochloride] | 
10 | ≤ 0.1 µM | C[C@@H]1CN(S(C)(=O)=O)CCN1Cc1cc2c(=O)n(C)cc(-c3ccncc3OCCF)c2o1 [Example 72, (R)-7-(3-(2-fluoroethoxy)pyridin-4-yl)-5-methyl-2-((2-methyl-4-(methylsulfonyl)piperazin-1-yl)methyl)furo[3,2-c]pyridin-4(5H)-one] | 
11 | ≤ 0.1 µM | C[C@@H]1CN(S(C)(=O)=O)CCN1Cc1cc2c(=O)n(C)cc(-c3ccncc3OC3CC3)c2o1 [Example 73, (R)-7-(3-cyclopropoxypyridin-4-yl)-5-methyl-2-((2-methyl-4-(methylsulfonyl)piperazin-1-yl)methyl)furo[3,2-c]pyridin-4(5H)-one] | 
12 | ≤ 0.1 µM | C[C@@H]1CN(S(C)(=O)=O)CCN1Cc1cc2c(=O)n(C)cc(-c3ccncc3OCC(F)F)c2o1 [Example 74, (R)-7-(3-(2,2-difluoroethoxy)pyridin-4-yl)-5-methyl-2-((2-methyl-4-(methylsulfonyl)piperazin-1-yl)methyl)furo[3,2-c]pyridin-4(5H)-one] | 
13 | ≤ 0.1 µM | CN1CCN(Cc2cc3c(=O)n(C)cc(-c4ccncc4OCC4CC4)c3o2)CC1=O [Example 76, 7-(3-(cyclopropylmethoxy)pyridin-4-yl)-5-methyl-2-((4-methyl-3-oxopiperazin-1-yl)methyl)furo[3,2-c]pyridin-4(5H)-one hydrochloride] | 
14 | ≤ 0.1 µM | COC(C)COc1cnccc1-c1cn(C)c(=O)c2cc(CN3CCN(S(C)(=O)=O)C[C@H]3C)oc12 (stereo partly drawn) [Example 78, 7-(3-(2-methoxypropoxy)pyridin-4-yl)-5-methyl-2-(((R)-2-methyl-4-(methylsulfonyl)piperazin-1-yl)methyl)furo[3,2-c]pyridin-4(5H)-one] | 
15 | ≤ 0.1 µM | CC(=O)Nc1cc(-c2cn(C)c(=O)c3cc(CN4CCNC(=O)CC4)oc23)ccn1 [Example 82, N-(4-(5-methyl-4-oxo-2-((5-oxo-1,4-diazepan-1-yl)methyl)-4,5-dihydrofuro[3,2-c]pyridin-7-yl)pyridin-2-yl)acetamide] | 
16 | ≤ 0.1 µM | CC(=O)Nc1cc(-c2cn(C)c(=O)c3cc(CN4CCS(=O)(=O)CC4)oc23)ccn1 [Example 87, N-(4-(2-((1,1-dioxidothiomorpholino)methyl)-5-methyl-4-oxo-4,5-dihydrofuro[3,2-c]pyridin-7-yl)pyridin-2-yl)acetamide] | 
17 | ≤ 0.1 µM | CC(=O)Nc1cc(-c2cn(C)c(=O)c3cc(CN4CC(C)N(S(C)(=O)=O)CC4C)oc23)ccn1 (stereo not drawn) [Example 96, N-(4-(2-((2,5-dimethyl-4-(methylsulfonyl)piperazin-1-yl)methyl)-5-methyl-4-oxo-4,5-dihydrofuro[3,2-c]pyridin-7-yl)pyridin-2-yl)acetamide] | 
18 | ≤ 0.1 µM | CC(=O)Nc1cc(-c2cn(C)c(=O)c3cc(CN4CCC(=O)NCC4C)oc23)ccn1 (stereo not drawn) [Example 100, N-(4-(5-methyl-2-((2-methyl-5-oxo-1,4-diazepan-1-yl)methyl)-4-oxo-4,5-dihydrofuro[3,2-c]pyridin-7-yl)pyridin-2-yl)acetamide] | 
19 | ≤ 0.1 µM | CC(=O)Nc1cc(-c2cn(C)c(=O)c3cc(CN4CCS(=O)(=O)CC4C)oc23)ccn1 (stereo not drawn) [Example 102, N-(4-(5-methyl-2-((3-methyl-1,1-dioxidothiomorpholino)methyl)-4-oxo-4,5-dihydrofuro[3,2-c]pyridin-7-yl)pyridin-2-yl)acetamide] | 
20 | ≤ 0.1 µM | CC(=O)Nc1cc(-c2cn(C)c(=O)c3cc(CN4CCN(S(C)(=O)=O)[C@@H](C)C4)oc23)ccn1 [Example 108, (S)—N-(4-(5-methyl-2-((3-methyl-4-(methylsulfonyl)piperazin-1-yl)methyl)-4-oxo-4,5-dihydrofuro[3,2-c]pyridin-7-yl)pyridin-2-yl)acetamide] | 
21 |  | COc1ccc2c(c1)C(c1ccc(Cl)cc1)=N[C@@H](CC(=O)NCCCCCNC(=O)CCCCCC1(C)/C(=C/C=C/C=C/C3=[N+](CCCCS(=O)(=O)O)c4ccc(S(=O)(=O)O)cc4C3(C)C)N(CCCCS(=O)(=O)[O-])c3ccc(S(=O)(=O)O)cc31)c1nnc(C)n1-2 (stereo partly drawn) [Reference Compound X] | > 1000 fold
